Data as given in patent US10934303B2, “Aryl ethene derivative and pharmaceutical composition containing same as active ingredient” (priority 2016, dated 2021).
Like-named read-outs stand apart in the source and are kept apart here.

Assays:
[1] = molecular target: GST-bound ER alpha ligand-binding domain (LBD) (Homo sapiens (Human), UniProt P03372); test: biochemical; conditions: TR-FRET, beta-estradiol 4 nM as agonist; read-out: Binding Assay, IC50 ERα
Procedure: (§2) The arylethene derivative of the present invention was sequentially added to a 384 well plate from a concentration of 10 μM to a final concentration of two-fold dilution. […] After all reagents were added, a reaction was carried out with gentle shaking at 20° C. for 1 hour, and after the reaction, a binding activity was measured by a TR-FRET method.

CYP1A2 = CYP1A2 (Homo sapiens (Human), UniProt P05177); test: Cytochrome P450 activity inhibition, CYP1A2; assay type: in vitro ADME; conditions: 10 μM, human liver microsomes, Phenacetin substrate
Text: (§1) 1) Cytochrome P450 (CYP450) Activity Inhibition Evaluation

CYP2D6 = CYP2D6 (Homo sapiens (Human), UniProt P10635); test: Cytochrome P450 activity inhibition, CYP2D6; assay type: in vitro ADME; conditions: 10 μM, human liver microsomes, Dextromethorphan substrate
Text: as §1

CYP3A4 = CYP3A4 (Homo sapiens (Human), UniProt P08684); test: Cytochrome P450 activity inhibition, CYP3A4; assay type: in vitro ADME; conditions: 10 μM, human liver microsomes, Midazolam substrate
Text: as §1

[2] = 1 μM, 30 minutes, 37° C., NADPH
Procedure: 2) Microsomal Stability Evaluation
(§3) Four liver microsomes (Human, Dog, Rat, Mouse 0.5 mg/ml) with a 0.1 M phosphate buffer solution (pH 7.4), and the arylethene derivative of the present invention were added to a concentration of 1 μM, culturing was performed at 37° C. for 5 minutes in advance, a NADPH regeneration system solution was added thereto, and culturing was performed at 37° C. for 30 minutes. Thereafter, in order to complete the reaction, an acetonitrile solution containing an internal standard material (chlorpropamide) was added thereto, centrifugation (14,000 rpm, 4° C.) was performed for 5 minutes, and a supernatant was injected into a LC-MS/MS system to analyze the substrate drug, thereby evaluating metabolism stability to the arylethene derivative of the present invention.

[3] = 1 μM, 30 minutes, 37° C., NADPH; remark: listed apart in the source
[4] = 1 μM, 30 minutes, 37° C., NADPH; remark: listed apart in the source
Procedure: 2) Microsomal Stability Evaluation
as §3

CYP2C19 = CYP2C19 (Homo sapiens (Human), UniProt P33261); test: Cytochrome P450 activity inhibition, CYP2C19; assay type: in vitro ADME; conditions: 10 μM, human liver microsomes, S-mephenytoin substrate
Text: as §1

ERRγ = assay type: cell-based
Procedure: AD293 was cultured in a 24-well plate for 24 hours, using a DMEM High glucose culture medium (Hyclone, USA) to which 0.5% FBS was added at a concentration of 9×10^4/well. The culture medium was replaced with a DMEM High glucose culture medium to which 10% FBS was added, treatment was performed with a mixture of a TransIT-LT1 transfection reagent (Mirus, USA) and pCMX-Gal4-ERRγ, pFR-luciferase reporter plasmid, pCMV-β-gal, and culturing was performed for 24 hours. Thereafter, a luciferase activity assay and a β-gal assay were performed, respectively, with a lysate obtained after treatment with the arylethene derivative of the present invention for 24 hours. All results were derived from three or more independent repetitive experiments.

[5] = 1 μM, 30 minutes, 37° C., NADPH; remark: listed apart in the source
CYP2C9 = CYP2C9 (Homo sapiens (Human), UniProt P11712); test: Cytochrome P450 activity inhibition, CYP2C9; assay type: in vitro ADME; conditions: 10 μM, human liver microsomes, Diclofenac substrate
Text: as §1

GST-bound ERR alpha LBD = GST-bound ERR alpha LBD (Homo sapiens (Human), UniProt P11474); conditions: TR-FRET, PGC1a coactivator; read-out: Binding Assay, IC50 ERRα
Procedure: as §2

ERRβ = ERRβ (Homo sapiens, UniProt O95718); conditions: TR-FRET, PGC1a coactivator; read-out: Binding Assay, IC50 ERRβ
Procedure: as §2

CAL-62/effluc tumor = conditions: background statement; cited from earlier work
CAL62 cells = test: Clonogenic assay with 131I; assay type: cell-based; conditions: CAL-62, combination with 131I
Procedure: The cells were plated in a 6-well plate, and allowed to stand for 24 hours. […] The cells were washed with cold bHBSS, and allowed to stand in a normalized culture medium for a time corresponding to six doublings. Finally, the cells were fixed in a 4% paraformaldehyde (PFA) solution and stained with 0.05% crystal violet.

in vivo = assay type: in vivo; conditions: rat
in vitro = in vitro ADME; design: Papp at 5 h: dose or concentration left out as unconfirmed; conditions: PAMPA, PBS pH 7.4, 25° C., read-out: Permeability Pampa
Procedure: 3) Parallel Artificial Membrane Permeability Assay (PAMPA) Evaluation
PAMPA is a method which has been developed for testing cell membrane permeability of a material in a test tube, and has been performed using a lipid tri-layer PVDF membrane available from Corning Gentest (NY, US), the used reagents were all purchased from Sigma (MO, US). First, a test material is diluted in PBS (pH 7.4) to a final concentration of 10 mM, 300 mL of the solution is added to the bottom well of a 96-transwell equipped with a PVDF membrane, and 200 mL of PBS is added to the upper well. Then, a plate is reacted at 25° C. for 5 hours, 20 mL of the solution in each well is transferred to a new container, and 80 mL of acetonitrile containing an internal standard material (4 mM chloropropamide) is added thereto. A concentration of the material in the solution is analyzed using LC-MS/MS (ThermoFisher Scientific, MO, US), and the transmittance of the material is calculated according to the equation reported in the reference document.

hERG channel = hERG channel (Homo sapiens (Human), UniProt Q12809); test: biochemical
[6] = molecular target: GST-bound ERR gamma ligand-binding domain (LBD) (Homo sapiens (Human), UniProt P62508); test: ERRγ binding assay (inverse agonist assay), TR-FRET; conditions: TR-FRET, PGC1a coactivator; read-out: Binding Assay, IC50 ERRγ
Procedure: 1) ERRγ Binding Assay (Inverse Agonist Assay)
as §2

pERK1/2 = test: Western blot, phosphorylated ERK1/2 in CAL62 cells; assay type: cell-based; conditions: MEK inhibitor
[7] = tested on: CAL-62 anaplastic thyroid cancer cell line; assay type: cell-based
[8] = activity relative to reference compound GSK5182, 10 μM

ERRβ, sequence (O95718 whole entry, looked up): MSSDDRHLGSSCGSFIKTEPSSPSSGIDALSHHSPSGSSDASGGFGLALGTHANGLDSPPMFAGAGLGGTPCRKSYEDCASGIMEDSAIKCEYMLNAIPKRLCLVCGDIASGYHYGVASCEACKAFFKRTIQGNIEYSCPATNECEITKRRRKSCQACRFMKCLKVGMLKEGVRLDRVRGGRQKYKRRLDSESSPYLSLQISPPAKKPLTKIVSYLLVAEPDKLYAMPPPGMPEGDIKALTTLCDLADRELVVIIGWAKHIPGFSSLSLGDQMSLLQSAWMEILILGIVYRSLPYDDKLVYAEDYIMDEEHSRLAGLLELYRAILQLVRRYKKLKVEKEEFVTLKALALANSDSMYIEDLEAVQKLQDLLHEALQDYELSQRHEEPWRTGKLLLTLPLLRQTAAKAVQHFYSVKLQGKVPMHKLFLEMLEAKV
CYP2C9, sequence (P11712 whole entry): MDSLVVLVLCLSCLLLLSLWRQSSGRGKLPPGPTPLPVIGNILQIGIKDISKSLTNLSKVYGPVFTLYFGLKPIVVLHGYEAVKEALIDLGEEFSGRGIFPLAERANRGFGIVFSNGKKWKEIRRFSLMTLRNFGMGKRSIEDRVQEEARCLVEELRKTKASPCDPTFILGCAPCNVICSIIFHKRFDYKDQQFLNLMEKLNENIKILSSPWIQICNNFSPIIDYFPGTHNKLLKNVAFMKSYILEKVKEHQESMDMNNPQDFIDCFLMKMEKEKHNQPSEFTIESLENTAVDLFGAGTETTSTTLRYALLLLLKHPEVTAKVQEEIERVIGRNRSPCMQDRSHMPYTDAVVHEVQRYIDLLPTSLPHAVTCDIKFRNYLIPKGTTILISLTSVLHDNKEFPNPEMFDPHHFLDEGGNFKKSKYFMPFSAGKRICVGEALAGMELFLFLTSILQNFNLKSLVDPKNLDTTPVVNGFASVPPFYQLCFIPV
GST-bound ERR gamma ligand-binding domain (LBD), sequence (P62508 233-457): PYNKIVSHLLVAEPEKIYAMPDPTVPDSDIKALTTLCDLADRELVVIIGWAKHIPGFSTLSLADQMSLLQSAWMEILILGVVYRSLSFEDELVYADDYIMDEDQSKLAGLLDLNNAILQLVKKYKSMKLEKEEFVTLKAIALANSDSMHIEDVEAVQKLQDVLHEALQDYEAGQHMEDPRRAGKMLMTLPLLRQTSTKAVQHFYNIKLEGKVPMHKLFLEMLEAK
GST-bound ER alpha ligand-binding domain (LBD), sequence (P03372 whole entry, looked up, the tested form may be a part): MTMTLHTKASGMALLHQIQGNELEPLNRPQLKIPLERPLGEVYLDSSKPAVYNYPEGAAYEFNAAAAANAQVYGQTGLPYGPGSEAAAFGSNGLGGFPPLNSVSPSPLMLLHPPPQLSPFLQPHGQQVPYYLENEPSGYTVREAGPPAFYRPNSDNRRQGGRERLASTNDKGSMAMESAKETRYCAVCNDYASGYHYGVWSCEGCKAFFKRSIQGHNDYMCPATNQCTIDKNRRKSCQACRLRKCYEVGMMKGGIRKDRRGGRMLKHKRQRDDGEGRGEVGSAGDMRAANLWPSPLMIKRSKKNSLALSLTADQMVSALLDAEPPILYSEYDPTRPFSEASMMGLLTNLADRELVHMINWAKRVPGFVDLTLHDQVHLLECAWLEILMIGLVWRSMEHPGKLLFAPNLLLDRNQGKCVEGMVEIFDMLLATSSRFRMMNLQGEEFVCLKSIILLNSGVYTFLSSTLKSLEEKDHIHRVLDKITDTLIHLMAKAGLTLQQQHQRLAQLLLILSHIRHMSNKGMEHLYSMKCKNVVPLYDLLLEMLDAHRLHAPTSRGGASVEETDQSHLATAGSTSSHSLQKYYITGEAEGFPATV
CYP2D6, sequence (P10635 whole entry): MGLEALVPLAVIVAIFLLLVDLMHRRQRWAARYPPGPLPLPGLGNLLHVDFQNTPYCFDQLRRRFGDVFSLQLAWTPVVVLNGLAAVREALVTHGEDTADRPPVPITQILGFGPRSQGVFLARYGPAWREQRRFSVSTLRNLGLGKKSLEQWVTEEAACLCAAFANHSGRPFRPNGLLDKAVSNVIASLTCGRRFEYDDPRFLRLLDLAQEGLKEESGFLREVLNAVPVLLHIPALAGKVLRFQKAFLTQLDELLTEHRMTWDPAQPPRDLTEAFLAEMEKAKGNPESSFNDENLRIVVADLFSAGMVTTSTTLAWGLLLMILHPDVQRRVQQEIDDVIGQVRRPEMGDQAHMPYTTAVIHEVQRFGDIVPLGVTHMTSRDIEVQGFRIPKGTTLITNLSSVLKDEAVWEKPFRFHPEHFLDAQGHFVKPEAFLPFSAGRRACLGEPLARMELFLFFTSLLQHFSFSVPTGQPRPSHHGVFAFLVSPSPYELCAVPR
GST-bound ERR alpha LBD, sequence (P11474 193-421): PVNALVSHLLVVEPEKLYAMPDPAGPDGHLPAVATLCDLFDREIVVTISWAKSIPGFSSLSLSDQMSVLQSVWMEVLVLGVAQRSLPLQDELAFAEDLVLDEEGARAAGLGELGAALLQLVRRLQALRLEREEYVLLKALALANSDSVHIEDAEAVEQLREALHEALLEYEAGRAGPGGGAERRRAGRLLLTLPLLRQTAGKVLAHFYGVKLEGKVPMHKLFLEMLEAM
CYP1A2, sequence (P05177 whole entry): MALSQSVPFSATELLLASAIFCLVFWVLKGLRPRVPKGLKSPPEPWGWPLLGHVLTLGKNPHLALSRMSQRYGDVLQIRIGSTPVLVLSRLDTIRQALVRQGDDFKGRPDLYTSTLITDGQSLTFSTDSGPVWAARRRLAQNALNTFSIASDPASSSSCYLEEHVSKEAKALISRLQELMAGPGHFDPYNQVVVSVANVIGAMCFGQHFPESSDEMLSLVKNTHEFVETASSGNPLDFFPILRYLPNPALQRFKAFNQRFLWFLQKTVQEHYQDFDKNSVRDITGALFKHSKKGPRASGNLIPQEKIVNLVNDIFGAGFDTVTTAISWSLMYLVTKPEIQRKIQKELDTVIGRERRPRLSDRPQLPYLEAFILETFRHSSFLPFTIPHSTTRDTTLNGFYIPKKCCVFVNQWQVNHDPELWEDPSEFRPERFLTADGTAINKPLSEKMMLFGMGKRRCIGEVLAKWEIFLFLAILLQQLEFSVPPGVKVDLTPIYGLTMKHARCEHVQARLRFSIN
CYP3A4, sequence (P08684 whole entry): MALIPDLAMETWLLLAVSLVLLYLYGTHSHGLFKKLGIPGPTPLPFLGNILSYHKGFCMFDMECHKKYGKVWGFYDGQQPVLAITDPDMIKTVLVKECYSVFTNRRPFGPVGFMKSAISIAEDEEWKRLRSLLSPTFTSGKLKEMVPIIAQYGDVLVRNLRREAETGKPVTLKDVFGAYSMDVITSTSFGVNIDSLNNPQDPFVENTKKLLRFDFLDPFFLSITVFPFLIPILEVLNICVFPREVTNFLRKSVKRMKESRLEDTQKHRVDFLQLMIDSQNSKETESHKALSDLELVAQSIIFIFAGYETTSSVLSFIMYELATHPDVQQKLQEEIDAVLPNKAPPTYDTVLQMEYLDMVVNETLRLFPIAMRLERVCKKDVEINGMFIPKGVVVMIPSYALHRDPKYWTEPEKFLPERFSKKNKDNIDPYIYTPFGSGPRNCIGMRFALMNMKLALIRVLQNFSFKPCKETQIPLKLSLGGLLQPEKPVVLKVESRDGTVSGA
CYP2C19, sequence (P33261 whole entry): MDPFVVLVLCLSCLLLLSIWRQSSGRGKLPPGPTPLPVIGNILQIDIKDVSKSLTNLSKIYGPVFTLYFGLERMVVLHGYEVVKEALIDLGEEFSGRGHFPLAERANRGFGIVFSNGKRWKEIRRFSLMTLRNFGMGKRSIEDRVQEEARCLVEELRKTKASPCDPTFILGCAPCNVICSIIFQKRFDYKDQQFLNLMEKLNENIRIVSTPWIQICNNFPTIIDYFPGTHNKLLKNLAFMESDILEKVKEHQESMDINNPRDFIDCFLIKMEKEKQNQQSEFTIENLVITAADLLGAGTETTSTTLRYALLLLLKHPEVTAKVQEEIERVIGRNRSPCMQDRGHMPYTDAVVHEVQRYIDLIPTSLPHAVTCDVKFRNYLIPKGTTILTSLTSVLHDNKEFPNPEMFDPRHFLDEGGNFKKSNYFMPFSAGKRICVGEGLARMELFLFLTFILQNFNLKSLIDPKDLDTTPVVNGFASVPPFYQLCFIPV

| Structure (SMILES) | IC50 [1] [µM] | CYP inhibition (% of control) 1A2 (CYP1A2) | CYP inhibition (% of control) 2D6 (CYP2D6) | CYP inhibition (% of control) 3A4 (CYP3A4) | MS(Microsomal Stability) (%) rat [3] | CYP inhibition (% of control) 2C19 (CYP2C19) | Functional Assay at 10 μM (% of control), Cpds (ERRγ; 10 μM, 24 hours, AD293) | Functional Assay, Cpds/Ref 5182 (ERRγ; [8]) | MS(Microsomal Stability) (%) human [5] | CYP inhibition (% of control) 2C9 (CYP2C9) | IC50 (GST-bound ERR alpha LBD) [µM] | IC50 (ERRβ) [µM] | IC50 (hERG channel) [µM] | IC50 [6] [µM] | other results |
| --- | --- | --- | --- | --- | --- | --- | --- | --- | --- | --- | --- | --- | --- | --- | --- |
| OCCC/C(=C(\c1ccc(O)cc1)c1ccc(N2CCNCC2)cc1)c1ccccc1 [Compound 20j] | 0.992 | 93.6 % of control | 89.3 % of control | 66.2 % of control | 84.5% | 62 % of control | 1.41 % of control | 1.38 | 76.8% | 77.1 % of control | > 10 | 4.93 |  |  | MS(Microsomal Stability) (%) mouse [2]: 25.3%; MS(Microsomal Stability) (%) dog [4]: 68.3% |
| CN(C)CCOc1ccc(/C(=C(/CCCO)c2ccccc2)c2ccc(O)cc2)cc1 [GSK5182, (Z)-4-(1-(4-(2-(dimethylamino)ethoxy)phenyl)-5-hydroxy-2-phenylpent-1-en-1-yl)phenol, reference compound] |  |  |  | 83 % of control | 26.0-29.1% |  |  |  | 42.8-45.1% |  |  |  |  |  | radioiodine uptake in the tumor, ATC mouse tumor model (CAL-62/effluc tumor): not increased; colony-formability, combining 131I and GSK5182 (CAL62 cells): about 58.5±7.4%; half-life (in vivo; in vivo, IV, 1 mg/kg): 2.3 h; Vd (in vivo; in vivo, IV, 1 mg/kg, read-out: Vss): 9.1 L/kg; CL/F (in vivo; in vivo, PO, 10 mg/kg, read-out: Cl(observed)/F): 134 mL/min/kg; Tmax (in vivo; in vivo, PO, 10 mg/kg, read-out: Tmax): 1.9 h; AUCINF (in vivo; IV, 1 mg/kg): 0.94 μMh; AUCall (in vivo; IV, 1 mg/kg): 0.89 μMh; Cl(observed)/F (in vivo; IV, 1 mg/kg): 44 mL/min/kg; AUCINF (in vivo; PO, 10 mg/kg): 0.78 μMh; AUCall (in vivo; PO, 10 mg/kg): 0.68 μMh; BA (in vivo; PO, 10 mg/kg): 8.4%; Cmax (in vivo; in vivo, po, 10 mg/kg): 130 nM; Papp at 5 h (in vitro): 0.11 to 0.82 ×10⁻⁶ cm/s |
| OCCC/C(=C(\c1ccc(O)cc1)c1ccc(OCCN2CCCCC2)cc1)c1ccccc1 [Compound 6d] | 0.262 |  |  |  |  |  | 5.2 % of control |  |  |  | > 10 |  | > 30 | 0.093 | Functional Assay, Cpds/Ref 5182 (ERRγ): 1.69 |
| COc1cccc(-c2cc(=O)c3ccccc3o2)c1N [PD98059] |  |  |  |  |  |  |  |  |  |  |  |  |  |  | inhibition of relative increase of phosphorylated ERK1 and ERK2 by compound 18a (pERK1/2): completely inhibited; inhibition of radioactive iodine uptake increase by compound 18a [7]: completely inhibited |
| OCCC/C(=C(\c1ccc(O)cc1)c1ccc(OCCN2CCC[C@@H]2CO)cc1)c1ccccc1 [Compound 38c] | 0.408 | 79.2 % of control | 54.3 % of control | 61.5 % of control |  | 58.8 % of control | 4.06 % of control |  |  | 55.3 % of control | > 10 | > 10 |  | 0.091 | Functional Assay, Cpds/Ref 5182 (ERRγ): 0.99 |
| CN1CCN(c2ccc(/C(=C(/CCCO)c3ccccc3)c3ccc(N)cc3)cc2)CC1 [Compound 26a, (Z)-5-(4-aminophenyl)-5-(4-(4-methylpiperazin-1-yl)phenyl)-4-phenylpent-4-en-1-ol] |  | >100 % of control |  |  | 46.7% | 89 % of control | 2.66 % of control | 0.84 | 72.3% |  |  |  | > 30 |  | Papp at 5 h (in vitro): 1.58 ×10⁻⁶ cm/s |
| OCCC/C(=C(\c1ccc(O)cc1)c1ccc(OCCN2C[C@H]3C[C@H]3[C@H]2CO)cc1)c1ccccc1 [Compound 38d] | 0.276 | 79.2 % of control | 54.3 % of control | 57.6 % of control | 11.7% | 58.8 % of control | 3.16 % of control | 0.77 | 6.9% | 55.3 % of control |  | 8.8 |  | 0.083 | MS(Microsomal Stability) (%) mouse [2]: 11.8% |
| [K+].[O-][Cl+3]([O-])([O-])[O-] [KClO4] |  |  |  |  |  |  |  |  |  |  |  |  |  |  | block of radioactive iodine uptake increased in compound 18a-treated cells ([7]; co-incubated with compound 18a-treated CAL62 cells, 300 μM KClO4): completely blocks |
| CC(C)N1CCC(c2ccc(/C(=C(/CCCO)c3ccccc3)c3cccc(O)c3)cc2)CC1 [Compound 22m] | > 10 | 97 % of control | 70.7 % of control | 58.1 % of control | 53.5% | >100 % of control |  |  | 55.3% | 80.3 % of control | > 10 | 7.82 |  |  | MS(Microsomal Stability) (%) mouse [2]: 24.2%; MS(Microsomal Stability) (%) dog [4]: 55.0%; AUCINF (in vivo; IV, 1 mg/kg): 0.00 μMh; AUCall (in vivo; IV, 1 mg/kg): 0.34 μMh; Vss (in vivo; IV, 1 mg/kg): 19.9 L/kg; t1/2 (in vivo; IV, 1 mg/kg): 2.4 h; AUCINF (in vivo; PO, 10 mg/kg): 0.00 μMh; AUCall (in vivo; PO, 10 mg/kg): 0.73 μMh; BA (in vivo; PO, 10 mg/kg): 24.3%; Tmax (in vivo; PO, 10 mg/kg): 2.4 h; t1/2 (in vivo; PO, 10 mg/kg): 4.3 h; Cmax (in vivo; PO, 10 mg/kg, read-out: Cmax): 130 nM |
| OCCC/C(=C(\c1ccc(O)cc1)c1ccc(OCCN2CC2)cc1)c1ccccc1 [Compound 6f] | 0.296 |  |  |  |  |  | 6.75 % of control | 2.19 |  |  | > 10 |  | > 30 | 0.059 |  |
| Nc1ccc(/C(=C(\CCCO)c2ccccc2)c2ccc(C3CCN(C4CC4)CC3)cc2)cc1 [Compound 26d] |  | >100 % of control | 86.1 % of control | 57.3 % of control | 72.2% | >100 % of control |  |  | 77.5% | 96.6 % of control |  |  | 26 |  | MS(Microsomal Stability) (%) mouse [2]: 38.3%; MS(Microsomal Stability) (%) dog [4]: 51.5%; Papp at 5 h (in vitro): 1.04 ×10⁻⁶ cm/s |
| N#CC(=C(/N)Sc1ccccc1N)/C(C#N)=C(\N)Sc1ccccc1N [Compound U0126] |  |  |  |  |  |  |  |  |  |  |  |  |  |  | inhibition of relative increase of phosphorylated ERK1 and ERK2 by compound 18a (pERK1/2): completely inhibited; inhibition of radioactive iodine uptake increase by compound 18a ([7]; MEK inhibitor pre-incubation 30 minutes): completely inhibited |
| OCCC/C(=C(\c1ccc(O)cc1)c1ccc(OCCN2CC3CC3C2)cc1)c1ccccc1 (stereo not drawn) [Compound 38a, (Z)-4-(1-(4-(2-(3-azabicyclo[3.1.0]hexan-3-yl)ethoxy)phenyl)-5-hydroxy-2-phenylpent-1-en-1-yl)phenol] | 0.437 |  |  |  |  |  | 1.45 % of control | 1.42 |  |  | > 10 | 8.13 | 16.1 | 0.079 |  |
| CN1CCC[C@@H]1COc1ccc(/C(=C(/CCCO)c2ccccc2)c2ccc(O)cc2)cc1 [Compound 6i] |  |  |  |  |  |  |  |  |  |  |  |  | > 30 |  | Functional Assay at 10 μM (% of control), Cpds (ERRγ): 5 % of control; Functional Assay, Cpds/Ref 5182 (ERRγ): 1.62 |
